# Like-named read-outs stand apart in the source and are kept apart here.
# Experiments:
# [1] = Measured solubility in buffer, LC-MS/MS; assay type: physicochemical; conditions: aqueous buffer, thermodynamic from solid
# Description: […] The mixture was vortexed and a magnetic stirring bar was subsequently added to the vial. The vial was placed on a magnetic stirrer with constant stirring for 16-24 hours at room temperature. The pH of the top layer solution was measured. Subsequently, 200 μL of the top layer solution was placed in a 1.5 mL microcentrifuge tube and centrifuged at 18,000 g for 10 min at room temperature. A 10 μL aliquot of supernatant was added to 990 μL of methanol:water (1/:1, v/v) and vortexed. Then, one volume of acetonitrile containing internal standard was added to one volume of the above 100-fold diluted solution and the resulting solution was vortexed and placed in 96-well plate for LC-MS/MS analysis. […] LC-MS-MS analysis was performed utilizing multiple reaction monitoring for detection of characteristic ions for each test compound, additional related analytes and internal standard.
# [2] = Stability in simulated gastric fluid (SGF); assay type: in vitro ADME; conditions: SGF with pepsin pH 1.2, 37° C.; for half-life: simulated gi fluid, 2 μg/mL, read-out: SGF t1/2
# Description: (§1) The stability of exemplary compounds in simulated gastric fluid (SGF) and simulated intestinal fluid (SIF) was tested according to the following protocol.
# [3] = Stability in simulated intestinal fluid (SIF); assay type: in vitro ADME; conditions: SIF with pancreatin pH 6.8, 37° C.; for half-life: simulated gi fluid, 2 μg/mL, read-out: SIF t1/2
# Description: as §1
# [4] = Rat liver microsomal stability; assay type: in vitro ADME; conditions: for half-life / microsomal CLint: rat liver microsomes 0.5 mg/mL, with NADPH; for half-life / microsomal CLint / Rat Liver Microsomal Stability no NADPH, % remain 1 h: compound 0.5 μM; for half-life: 37° C., read-out: Rat Liver Microsomal Stability t1/2; for microsomal CLint: read-out: Rat Liver Microsomal Stability CLint (uL/min/mg liver); for Comments: production of GNX (ganaxolone) in rat liver microsomes / Rat Liver Microsomal Stability no NADPH, % remain 1 h: rat liver microsomes
# Description: (§2) For several compounds only human liver microsomal stability was tested. […] The microsomal assays were carried out with and without the addition of NADPH at a final concentration of 1 mM. For negative control samples, NADPH reagent was not added. […] Note that compounds undergo only Phase I metabolism in liver microsomes.
# (§3) CLint=the intrinsic hepatic clearance (uL/min/mg), where CLint is equal to 0.693/(t1/2×Cmp)
# in vitro [5] = assay type: in vitro ADME, human; conditions: compound 0.5 μM; for half-life / microsomal CLint: human liver microsomes 0.5 mg/mL, with NADPH; for half-life: 37° C., read-out: Human Liver Microsomal Stability t1/2; for microsomal CLint: read-out: Human Liver Microsomal Stability CLint (uL/min/mg liver) (converted); for Human Liver Microsomal Stability no NADPH, % remain 1 h: human liver microsomes
# Description: as §2
# [6] = Dog liver microsomal stability; assay type: in vitro ADME; conditions: for microsomal CLint / half-life: dog liver microsomes 0.5 mg/mL, compound 0.5 μM; for microsomal CLint: read-out: Dog Liver Microsomal Stability CLint (uL/min/mg liver); for half-life: read-out: Dog Liver Microsomal Stability t1/2; for Dog Liver Microsomal Stability no NADPH, % remain 1 h: dog liver microsomes
# Description: as §2, §3
# Certain compounds were also tested in mice and dog liver microsome assays according to the protocol outlined above. […].
# in vitro [7] = conditions: for Human plasma t90 / Rat plasma t90: 2 μg/mL, 37° C.; for Observations: stability / GNX production in human plasma / half-life / Observations: stability / GNX production in rat plasma: plasma
# Description: The plasma stability of exemplary compounds was tested using rat, mice, dog, and human plasma, according to the following protocol. For each test compound, samples at a final concentration of 2 μg/mL were prepared in blank plasma of selected species. All samples were incubated at 37° C. on a 150-RPM orbital shaker, and an aliquot was removed at pre-determined time points (0, 15, 30, 60, and 120 minutes). Samples were precipitated with three volumes of acetonitrile containing propranolol as internal standard, and centrifuged for 10 min at 2000 g before LC/MS/MS analysis of the supernatant solutions.
# Dog plasma stability = assay type: in vitro ADME; conditions: dog plasma; for Dog plasma t90 / half-life: 2 μg/mL, 37° C.; for half-life: read-out: Dog plasma Half life (t1/2)
# [8] = Pharmacokinetic study with Compound 218 (IV 5 mg/kg, PO 25 mg/kg); assay type: in vivo; conditions: dog, plasma, fasted male beagle dogs; for AUC(0-t): read-out: Compound 218 PK AUClast; for MRT inf: read-out: Compound 218 PK MRTInf; for half-life: read-out: Compound 218 PK t1/2 (converted); for Vd: male, beagle, 5 mg/kg
# Description: […]; n=3) and oral (PO) administration (25 mg/kg; n=3) in fasted male beagle dogs.
# [9] = pH 7.4, 50 mM phosphate buffer, 16-24 hours, room temperature, read-out: Solubility pH 7.4
# [10] = buffer, pH 2.0, room temperature, read-out: Solubility pH 2.0
# [11] = analyte Compound 218, IV 5 mg/kg Compound 218, mean
# [12] = analyte Compound 218, oral 25 mg/kg Compound 218, mean
compound,measurement,setting,value
CC(=O)[C@H]1CC[C@H]2[C@@H]3CC[C@H]4C[C@](C)(OC(=O)CNC(C)(C)C(=O)O)CC[C@]4(C)[C@H]3CC[C@]12C [Compound 120],solubility,[1]; [9],0.035 mg/mL
same,solubility,[1]; [10],0.039 mg/mL
same,"SGF (% remain, 60 min)",[2],83%
same,half-life,[2],4.17 h
same,"SIF (% remain, 60 min)",[3],74%
same,half-life,[3],3.32 h
same,Comments: production of GNX (ganaxolone) in rat liver microsomes,[4],In rat no GNX produced;
same,half-life,[4],0.6 h
same,microsomal CLint,[4],38 µL/min/mg
same,"Rat Liver Microsomal Stability no NADPH, % remain 1 h",[4],72%
same,half-life,in vitro [5],0.267 h
same,microsomal CLint,in vitro [5],86 µL/min/mg
same,"Human Liver Microsomal Stability no NADPH, % remain 1 h",in vitro [5],8%
same,microsomal CLint,[6],17 µL/min/mg
same,half-life,[6],1.35 h
same,"Dog Liver Microsomal Stability no NADPH, % remain 1 h",[6],83%
same,Human plasma t90,in vitro [7],218 min
same,Observations: stability / GNX production in human plasma,in vitro [7]; human,"No GNX produced in rat,"
same,half-life,in vitro [7]; human,24.8 h
same,Rat plasma t90,in vitro [7],78 min
same,Observations: stability / GNX production in rat plasma,in vitro [7]; rat,"No GNX produced in rat,"
same,half-life,in vitro [7]; rat,8.67 h
same,Observations: stability / GNX production in dog plasma,Dog plasma stability,"No GNX produced in rat,"
same,Dog plasma t90,Dog plasma stability,88 min
same,half-life,Dog plasma stability,9.72 h
CC(=O)[C@H]1CC[C@H]2[C@@H]3CC[C@H]4C[C@](C)(OC(=O)COC(=O)CN5CCOCC5)CC[C@]4(C)[C@H]3CC[C@]12C [Compound 200],solubility,[1]; [9],0.029 mg/mL
same,solubility,[1]; [10],11.8 mg/mL
same,"SGF (% remain, 60 min)",[2],99.0%
same,"SIF (% remain, 60 min)",[3],31%
same,half-life,[4],0.202 h
same,microsomal CLint,[4],115 µL/min/mg
same,"Rat Liver Microsomal Stability no NADPH, % remain 1 h",[4],7.5%
same,half-life,in vitro [5],0.1 h
same,microsomal CLint,in vitro [5],229 µL/min/mg
same,"Human Liver Microsomal Stability no NADPH, % remain 1 h",in vitro [5],1%
same,Human plasma t90,in vitro [7],2.19 min
same,half-life,in vitro [7]; human,0.243 h
same,Rat plasma t90,in vitro [7],1.4 min
same,Observations: stability / GNX production in rat plasma,in vitro [7]; rat,"In rat, compound converted"
same,half-life,in vitro [7]; rat,0.158 h
CC(=O)[C@H]1CC[C@H]2[C@@H]3CC[C@H]4C[C@](C)(OC(=O)COC(=O)C(C)(C)N)CC[C@]4(C)[C@H]3CC[C@]12C [Compound 218],solubility,[1]; [9],0.152 mg/mL
same,solubility,[1]; [10],16.9 mg/mL
same,"SGF (% remain, 60 min)",[2],97%
same,half-life,[2],35 h
same,"SIF (% remain, 60 min)",[3],95%
same,half-life,[3],22.7 h
same,Comments: production of GNX (ganaxolone) in rat liver microsomes,[4],In rat no GNX produced;
same,half-life,[4],0.94 h
same,microsomal CLint,[4],26 µL/min/mg
same,"Rat Liver Microsomal Stability no NADPH, % remain 1 h",[4],83%
same,half-life,in vitro [5],0.24 h
same,microsomal CLint,in vitro [5],95.3 µL/min/mg
same,"Human Liver Microsomal Stability no NADPH, % remain 1 h",in vitro [5],10.0%
same,microsomal CLint,[6],69 µL/min/mg
same,half-life,[6],0.335 h
same,"Dog Liver Microsomal Stability no NADPH, % remain 1 h",[6],44.4%
same,Human plasma t90,in vitro [7],8.6 min
same,Observations: stability / GNX production in human plasma,in vitro [7]; human,No GNX produced
same,half-life,in vitro [7]; human,0.948 h
same,Rat plasma t90,in vitro [7],8.5 min
same,Observations: stability / GNX production in rat plasma,in vitro [7]; rat,GNX produced in rat
same,half-life,in vitro [7]; rat,0.938 h
same,Observations: stability / GNX production in dog plasma,Dog plasma stability,No GNX produced
same,Dog plasma t90,Dog plasma stability,783 min
same,half-life,Dog plasma stability,86.6 h
same,AUC(0-inf),"[8]; analyte Compound 218, IV 5 mg/kg Compound 218, mean, read-out: Compound 218 PK AUCinf",2.2 µg·h/mL
same,AUC(0-t),[8]; [11],2.13 µg·h/mL
same,C0,"[8]; analyte Compound 218, IV 5 mg/kg Compound 218, mean, read-out: Compound 218 PK C0",2.75 µg/mL
same,clearance,"[8]; analyte Compound 218, IV 5 mg/kg Compound 218, mean, read-out: Compound 218 PK CL",2.27 L/h/kg
same,MRT inf,[8]; [11],5.03 h
same,half-life,[8]; [11],17.7 h
same,AUC(0-inf),"[8]; analyte Compound 218, oral 25 mg/kg Compound 218, mean, read-out: Compound 218 PK AUCInf",0.415 µg·h/mL
same,AUC(0-t),[8]; [12],0.359 µg·h/mL
same,Cmax,"[8]; analyte Compound 218, oral 25 mg/kg Compound 218, mean, read-out: Compound 218 PK Cmax",0.0898 µg/mL
same,MRT inf,[8]; [12],6.38 h
same,Tmax,"[8]; analyte Compound 218, oral 25 mg/kg Compound 218, mean, read-out: Compound 218 PK Tmax",1.17 h
same,half-life,[8]; [12],6.13 h
same,bioavailability,"[8]; analyte Compound 218, oral 25 mg/kg vs IV 5 mg/kg Compound 218, mean, read-out: Compound 218 PK F (%)",3.76%
same,Vd,"[8]; intravenous, Compound 218 administered, read-out: volume of distribution (Vd) (dose/Co)",1.82 L/kg
same,Vd,"[8]; iv, analyte Compound 218, IV 5 mg/kg Compound 218, mean, read-out: Compound 218 PK Vss",11.4 L/kg
same,Vd,"[8]; iv, analyte Compound 218, IV 5 mg/kg Compound 218, mean, read-out: Compound 218 PK Vz",57.5 L/kg
CC(=O)OCCN(CCOC(C)=O)CC(=O)OC(C)(C)C(=O)OCC(=O)O[C@]1(C)CC[C@@]2(C)[C@@H](CC[C@@H]3[C@@H]2CC[C@]2(C)[C@@H](C(C)=O)CC[C@@H]32)C1 [Compound 229],solubility,[1]; [9],0.011 mg/mL
same,solubility,[1]; [10],0.022 mg/mL
same,half-life,in vitro [5],0.102 h
same,microsomal CLint,in vitro [5],227 µL/min/mg
same,"Human Liver Microsomal Stability no NADPH, % remain 1 h",in vitro [5],1%
same,microsomal CLint,[6],224 µL/min/mg
same,half-life,[6],0.103 h
same,"Dog Liver Microsomal Stability no NADPH, % remain 1 h",[6],1%
"CC(=O)[C@H]1CC[C@H]2[C@@H]3CC[C@H]4C[C@](C)(O)CC[C@]4(C)[C@H]3CC[C@]12C [ganaxolone, Ganaxolone]",solubility,[1]; [9],0.004 mg/mL
same,solubility,[1]; [10],0.002 mg/mL
same,"SGF (% remain, 60 min)",[2],95.6%
same,"SIF (% remain, 60 min)",[3],94.6%
same,half-life,[4],0.2 h
same,microsomal CLint,[4],116 µL/min/mg
same,"Rat Liver Microsomal Stability no NADPH, % remain 1 h",[4],98.0%
same,half-life,in vitro [5],0.21 h
same,microsomal CLint,in vitro [5],110 µL/min/mg
same,"Human Liver Microsomal Stability no NADPH, % remain 1 h",in vitro [5],99.0%
same,microsomal CLint,[6],27.8 µL/min/mg
same,half-life,[6],0.83 h
same,"Dog Liver Microsomal Stability no NADPH, % remain 1 h",[6],43.6%
same,Human plasma t90,in vitro [7],211.0 min
same,half-life,in vitro [7]; human,23.4 h
same,Rat plasma t90,in vitro [7],94.2 min
same,half-life,in vitro [7]; rat,10.4 h
same,Dog plasma t90,Dog plasma stability,564 min
same,half-life,Dog plasma stability,62.4 h
